Measured values as given in ChEMBL document CHEMBL3714766, “Tetrahydroisoquinoline compounds and their use as pyruvate dehydrogenase kinase inhibitors” (2015).

Tests used:
[1] = molecular target: T1, Pyruvate dehydrogenase kinase (Homo sapiens, UniProt Q15119+Q15120+Q16654+Q15118); assay: Binding affinity to pyruvate dehydrogenase kinase (unknown origin) by VER-00160364 probe based fluorescence polarization assay
[2] = molecular target: T1, Pyruvate dehydrogenase kinase; assay: Inhibition of pyruvate dehydrogenase kinase in human PC3 cells incubated for 90 mins by phospho(Ser293)E1alpha MSP ELISA method; format: cell-based; settings: pc-3
[3] = molecular target: T1, Pyruvate dehydrogenase kinase; assay: Inhibition of pyruvate dehydrogenase kinase (unknown origin) assessed as reduction in E1 phosphorylation incubated for 1 hr by DELFIA method; format: protein assay

COc1cnc(Cl)nc1-c1ccc2c(c1)CC[C@H](C)N2C(=O)c1ccc(O)cc1O
IC50 [1]: 100 nM
IC50 [2]: 1000 nM

Cc1cc(S(=O)(=O)NCc2ccccc2)cnc1-c1ccc2c(c1)CCC(c1cccnc1)N2C(=O)c1ccc(O)cc1O (stereo unspecified)
IC50 [3]: 10 nM

C[C@H]1CCc2cc(-c3nc(Cl)nc4c3ccn4C)ccc2N1C(=O)c1ccc(O)cc1O
IC50 [1]: 1000 nM
IC50 [2]: 1000 nM

C[C@H]1CCc2cc(-c3ncnc4ccsc34)ccc2N1C(=O)c1ccc(O)cc1O
IC50 [1]: 100 nM
IC50 [2]: 1000 nM

Cc1cc(S(=O)(=O)N2CCC(F)(F)CC2)cnc1-c1ccc2c(c1)CCC(c1cccnc1)N2C(=O)c1ccc(O)cc1O (stereo unspecified)
IC50 [3]: 10 nM

C[C@H]1CCc2cc(-c3nc(Cl)nc4[nH]ccc34)ccc2N1C(=O)c1ccc(O)cc1O
IC50 [1]: 1000 nM
IC50 [2]: 1000 nM

C[C@H]1CCc2cc(C(=O)N(C)Cc3cccc4ccccc34)ccc2N1C(=O)c1ccc(O)cc1O
IC50 [1]: 100 nM
IC50 [2]: 1000 nM

O=C(c1ccc(O)cc1O)N1c2ccccc2CCC1c1ccco1 (stereo unspecified)
IC50 [1]: 1000 nM

O=C(c1ccc(O)cc1O)N1c2ccccc2CCC1c1cccnc1 (stereo unspecified)
IC50 [1]: 100 nM

Cc1nc(C(F)(F)F)nc(-c2ccc3c(c2)CC[C@H](C)N3C(=O)c2ccc(O)cc2O)c1C
IC50 [1]: 100 nM
IC50 [2]: 1000 nM

Cc1cc(N)cnc1-c1ccc2c(c1)CC[C@H](C)N2C(=O)c1ccc(O)cc1O
IC50 [1]: 10 nM
IC50 [2]: 1000 nM

CCNc1ccc(-c2ccc3c(c2)CC[C@H](C)N3C(=O)c2ccc(O)cc2O)c(C)n1
IC50 [1]: 100 nM
IC50 [2]: 1000 nM

Cc1cc2ccccc2nc1-c1ccc2c(c1)CC[C@H](C)N2C(=O)c1ccc(O)cc1O
IC50 [1]: 100 nM
IC50 [2]: 1000 nM

Cc1cc(S(=O)(=O)NCc2ccncc2)cnc1-c1ccc2c(c1)CC[C@H](C)N2C(=O)c1ccc(O)cc1O
IC50 [1]: 10 nM
IC50 [2]: 1000 nM

C[C@H]1CCc2cc(-c3ccnc4ccccc34)ccc2N1C(=O)c1ccc(O)cc1O
IC50 [1]: 100 nM
IC50 [2]: 1000 nM

O=C(c1ccc(O)cc1O)N1c2ccc(-c3ncnc4cccc(F)c34)cc2CCC1c1cccnc1 (stereo unspecified)
IC50 [3]: 10 nM

Cc1cnc(Cl)nc1-c1ccc2c(c1)CC[C@H](C)N2C(=O)c1cc(F)c(O)cc1O
IC50 [1]: 10 nM
IC50 [2]: 1000 nM

O=C(c1ccc(O)cc1O)N1c2ccccc2CCC1c1cccs1 (stereo unspecified)
IC50 [1]: 1000 nM

CC(C)C(=O)Nc1ccc2c(c1)CCCN2C(=O)c1ccc(O)cc1O
IC50 [1]: 1000 nM

Cc1n[nH]c(C)c1C1CCc2ccccc2N1C(=O)c1ccc(O)cc1O (stereo unspecified)
IC50 [1]: 1000 nM

Cc1cnc(Cl)nc1-c1ccc2c(c1)CC[C@H](c1cccnc1)N2C(=O)c1ccc(O)cc1O
IC50 [3]: 100 nM
IC50 [2]: 1000 nM

C[C@H]1CCc2cc(C(=O)N(C)Cc3cccc4cnccc34)ccc2N1C(=O)c1ccc(O)cc1O
IC50 [1]: 10 nM
IC50 [2]: 1000 nM

Cc1cc(S(=O)(=O)N2CC(F)(F)C2)cnc1-c1ccc2c(c1)CCC(c1cccnc1)N2C(=O)c1ccc(O)cc1O (stereo unspecified)
IC50 [3]: 10 nM

Cc1cc(S(=O)(=O)NCc2cccs2)cnc1-c1ccc2c(c1)CC[C@H](C)N2C(=O)c1ccc(O)cc1O
IC50 [1]: 10 nM
IC50 [2]: 1000 nM

O=C(c1ccc(O)cc1O)N1c2ccc(-c3nc(Cl)nc4[nH]ccc34)cc2CCC1c1cccnc1 (stereo unspecified)
IC50 [1]: 100 nM
IC50 [2]: 1000 nM

C[C@H]1CCc2cc(-c3nc(Cl)nc4ccsc34)ccc2N1C(=O)c1ccc(O)cc1O
IC50 [1]: 1000 nM
IC50 [2]: 1000 nM

Cc1cnc(Cl)nc1-c1ccc2c(c1)CCC(C)N2C(=O)c1cc(Cl)c(O)cc1O (stereo unspecified)
IC50 [1]: 100 nM
IC50 [2]: 1000 nM

O=C(c1cc(Cl)c(O)cc1O)N1c2ccccc2CC[C@@H]1c1cccnc1
IC50 [3]: 100 nM

C[C@H]1CCc2cc(C(=O)N(C)Cc3cccs3)ccc2N1C(=O)c1ccc(O)cc1O
IC50 [1]: 10 nM
IC50 [2]: 10000 nM

Cc1csc2ncnc(-c3ccc4c(c3)CC[C@H](C)N4C(=O)c3ccc(O)cc3O)c12
IC50 [1]: 100 nM
IC50 [2]: 1000 nM

Cc1sc2ncnc(-c3ccc4c(c3)CC[C@H](C)N4C(=O)c3ccc(O)cc3O)c2c1C
IC50 [1]: 100 nM
IC50 [2]: 10000 nM

CSc1nc(-c2ccc3c(c2)CC[C@H](C)N3C(=O)c2ccc(O)cc2O)c2cc[nH]c2n1
IC50 [1]: 1000 nM
IC50 [2]: 1000 nM

COc1ccc(CN(C)C(=O)c2ccc3c(c2)CC[C@H](C)N3C(=O)c2ccc(O)cc2O)cc1
IC50 [1]: 100 nM
IC50 [2]: 1000 nM

C[C@H]1CCc2cc(C(=O)N(C)Cc3ccc4nccnc4c3)ccc2N1C(=O)c1ccc(O)cc1O
IC50 [1]: 10 nM
IC50 [2]: 1000 nM

COc1cnc(Cl)nc1-c1ccc2c(c1)CC[C@H](c1cccnc1)N2C(=O)c1cc(Cl)c(O)cc1O
IC50 [3]: 100 nM
IC50 [2]: 1000 nM

O=C(c1ccc(O)cc1O)N1c2ccccc2CCC1C(F)(F)F (stereo unspecified)
IC50 [3]: 100 nM

O=C(c1ccc(O)cc1O)N1c2ccccc2CCC1c1ccccn1 (stereo unspecified)
IC50 [1]: 1000 nM

COCCNS(=O)(=O)c1cnc(-c2ccc3c(c2)CC[C@H](C)N3C(=O)c2ccc(O)cc2O)c(C)c1
IC50 [1]: 100 nM
IC50 [2]: 10000 nM

CCN(CC)S(=O)(=O)c1ccc2c(c1)CCC(C)N2C(=O)c1ccc(O)cc1O (stereo unspecified)
IC50 [1]: 100 nM

Cc1cc(S(=O)(=O)NCC2CC2)cnc1-c1ccc2c(c1)CC[C@H](C)N2C(=O)c1ccc(O)cc1O
IC50 [1]: 100 nM
IC50 [2]: 1000 nM

O=C(c1ccc(O)cc1O)N1c2ccccc2CCC1c1ccn[nH]1 (stereo unspecified)
IC50 [1]: 100 nM

COCCOc1ncc(C)c(-c2ccc3c(c2)CC[C@H](C)N3C(=O)c2ccc(O)cc2O)n1
IC50 [1]: 100 nM
IC50 [2]: 1000 nM

C[C@H]1CCc2cc(C(=O)N(C)Cc3ccc4ccccc4n3)ccc2N1C(=O)c1ccc(O)cc1O
IC50 [1]: 100 nM
IC50 [2]: 1000 nM

C[C@H]1CCc2cc(-c3ncnc4cccc(F)c34)ccc2N1C(=O)c1ccc(O)cc1O
IC50 [1]: 10 nM
IC50 [2]: 1000 nM

Cc1cccnc1-c1ccc2c(c1)CCC(CNS(C)(=O)=O)N2C(=O)c1ccc(O)cc1O (stereo unspecified)
IC50 [1]: 100 nM

Cc1cccnc1-c1ccc2c(c1)CCC(c1cccnc1)N2C(=O)c1ccc(O)cc1O (stereo unspecified)
IC50 [1]: 10 nM
